{"source": "patent US7678913B2", "about": "“Ureas as factor Xa inhibitors” (Portola Pharmaceuticals, Inc., priority 2004, dated 2010)", "data": [{"target": "T1, human plasma protein factor Xa (Homo sapiens, UniProt P00742)", "T1 construct": "measure proteolytic activity of the enzyme (factor Xa); purchased Haematologic Technologies (Essex Junction, Vt.); host or cells: human plasma", "T1 sequence (P00742 235-488 limits assumed)": "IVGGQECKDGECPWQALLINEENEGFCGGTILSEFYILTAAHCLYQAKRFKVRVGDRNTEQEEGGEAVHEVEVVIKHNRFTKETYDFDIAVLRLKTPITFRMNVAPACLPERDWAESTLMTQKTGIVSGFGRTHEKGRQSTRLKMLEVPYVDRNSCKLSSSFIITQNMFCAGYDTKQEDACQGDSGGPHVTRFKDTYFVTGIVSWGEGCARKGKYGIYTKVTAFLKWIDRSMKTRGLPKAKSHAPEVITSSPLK", "T1 sequence (P00742 41-179 partner limits assumed)": "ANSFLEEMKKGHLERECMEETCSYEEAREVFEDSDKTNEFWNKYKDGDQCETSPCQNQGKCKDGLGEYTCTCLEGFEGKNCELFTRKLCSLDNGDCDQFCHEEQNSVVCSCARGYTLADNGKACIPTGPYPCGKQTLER", "assay": "Factor Xa IC50 determination (cleavage of chromogenic substrate S-2765)", "format": "biochemical", "details": "fXa 1 nM, S-2765 100 μM, Tris buffered saline pH 7.4, room temperature", "in_short": "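Human plasma factor Xa (1 nM) preincubated 5 min at room temperature with inhibitor (0.01 nM–10 μM final) in Tris-buffered saline pH 7.4 with CaCl2, BSA and 5% DMSO. S-2765 added at 100 μM; pNA release at 405 nm over 2 min; initial velocities fitted to four-parameter equation for IC50, duplicates.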", "units": {"IC50": "nM"}, "values": [{"compound": "CN(C)Cc1ccccc1-c1ccc(NC(=O)C(NC(=O)Nc2ccc(Cl)cc2)c2ccccc2F)c(F)c1", "note": "(centres unmarked) [Example 56, N-[4-(2-dimethylaminomethyl-phenyl)-2-fluorophenyl]-2-(2-fluorophenyl)-2-(4-chlorophenylaminocarbonylamino)-acetamide]", "IC50": "≤ 100"}, {"compound": "C#CCN(C)C(=N)c1ccc(NC(=O)C(NC(=O)Nc2ccc(Cl)cc2)c2ccccc2)c(F)c1", "note": "(centres unmarked) [Example 36, N-[4-(N-methyl-N-propargylaminoimino)-2-fluorophenyl]-2-phenyl-2-(4-chlorophenylaminocarbonylamino)-acetamide]", "IC50": "≤ 100"}, {"compound": "CN1CCN=C1c1ccc(N2C(=O)CC(NC(=O)Nc3ccc(Cl)cc3)C2=O)cc1", "note": "(centres unmarked) [Example 72, N-[4-(1-methyl-4,5-dihydro-1H-imidazol-2-yl)phenyl]-3-(4-chlorophenylaminocarbonylamino)-succinimide]", "IC50": "100 to 500"}, {"compound": "CN1CCN=C1c1ccc(NC(=O)C(CC(=O)N2CCOCC2)NC(=O)Nc2ccc(Cl)cc2)cc1", "note": "(centres unmarked) [Example 65, N-[4-(1-methyl-4,5-dihydro-1H-imidazol-2-yl)phenyl]-2-(morpholin-4-ylcarbonylmethyl)-2-(4-chlorophenylaminocarbonylamino)-acetamide]", "IC50": "≥ 500"}, {"compound": "CNC(=N)c1ccc(NC(=O)C(NC(=O)Nc2ccc(Cl)cc2)c2ccccc2)cc1", "note": "(centres unmarked) [Example 25, N-[4-(methylaminoimino)phenyl]-2-phenyl-2-(4-chlorophenylamino-carbonylamino)-acetamide]", "IC50": "≤ 100"}, {"compound": "O=C(Nc1ccc(Cl)cc1)N[C@@H](C(=O)N1CCC(N2CCCCC2=O)CC1)c1ccccc1", "note": "[Example 141, (2R) 4-(2-piperidinon-1-yl)piperidin-1-yl-2-phenyl-2-(4-chlorophenylaminocarbonylamino)-acetamide]", "IC50": "≤ 100"}, {"compound": "O=C(Nc1ccc(Cl)cc1)N[C@@H](C(=O)N1CCC(n2ccccc2=O)CC1)c1ccccc1", "note": "[Example 143, (2R) 4-(2-pyridon-1-yl)piperidin-1-yl-2-phenyl-2-(4-chlorophenylaminocarbonylamino)-acetamide]", "IC50": "≤ 100"}, {"compound": "O=C(Nc1ccc(Cl)cc1)NC(C(=O)Nc1ccc(-c2cccc[n+]2[O-])cc1)c1ccccc1Br", "note": "(centres unmarked) [Example 79, N-[4-(N-oxo-pyridin-2-yl)phenyl]-2-(2-bromophenyl)-2-(4-chlorophenylaminocarbonylamino)-acetamide]", "IC50": "≤ 100"}, {"compound": "COc1ccccc1C(NC(=O)Nc1ccc(Cl)cc1)C(=O)NC1CCN(C(C)C)CC1", "note": "(centres unmarked) [Example 110, N-(1-isopropylpiperidin-4-yl)-2-(2-methoxyphenyl)-2-(4-chlorophenylamino-carbonylamino)-acetamide]", "IC50": "≥ 500"}, {"compound": "CCN(C)C(=N)c1ccc(NC(=O)C(NC(=O)Nc2ccc(Cl)cc2)c2ccccc2)c(F)c1", "note": "(centres unmarked) [Example 34, N-[4-(N-methyl-N-ethylaminoimino)-2-fluorophenyl]-2-phenyl-2-(4-chlorophenylaminocarbonylamino)-acetamide]", "IC50": "≤ 100"}, {"compound": "CN1CCN=C1c1ccc(NC(=O)C(NC(=O)Nc2ccc(Cl)cc2)c2ccccc2)cc1", "note": "(centres unmarked) [Example 16, N-[4-(1-methyl-4,5-dihydro-1H-imidazol-2-yl)phenyl]-2-phenyl-2-(4-chlorophenylaminocarbonylamino)-acetamide]", "IC50": "≤ 100"}, {"compound": "Cc1ccccc1C(NC(=O)Nc1ccc(Cl)cc1)C(=O)Nc1ccc(-n2ccnc2CN(C)C)cc1F", "note": "(centres unmarked) [Example 85, N-[4-(2-dimethylaminomethyl-imidazol-1-yl)-2-fluorophenyl]-2-(2-methylphenyl)-2-(4-chlorophenylaminocarbonylamino)-acetamide]", "IC50": "≤ 100"}, {"compound": "O=C(Nc1ccc(Cl)cc1)NC(C(=O)Nc1ccc(-c2cccc[n+]2[O-])cc1)c1ccccc1I", "note": "(centres unmarked) [Example 115, N-[4-(N-oxo-pyridin-2-yl)phenyl]-2-(2-iodophenyl)-2-(4-chlorophenylamino-carbonylamino)-acetamide]", "IC50": "≤ 100"}, {"compound": "CN1CCN=C1c1ccc(NC(=O)C(NC(=O)Nc2ccc(Cl)cc2)c2ccccc2F)cc1", "note": "(centres unmarked) [Example 11, N-[4-(1-methyl-4,5-dihydro-1H-imidazol-2-yl)phenyl]-2-(2-fluorophenyl)-2-(4-chlorophenylaminocarbonylamino)-acetamide]", "IC50": "≤ 100"}, {"compound": "N=C(c1ccc(NC(=O)C(NC(=O)Nc2ccc(Cl)cc2)c2ccccc2)cc1)N1CCC1", "note": "(centres unmarked) [Example 28]", "IC50": "≤ 100"}, {"compound": "Cc1ccccc1C(NC(=O)Nc1ccc(Cl)cc1)C(=O)Nc1ccc(C(=O)N2CCOC2)cc1", "note": "(centres unmarked) [Example 98, N-[4-(oxazolidin-3-ylcarbonyl)phenyl]-2-(2-methylphenyl)-2-(4-chlorophenylaminocarbonylamino)-acetamide]", "IC50": "≤ 100"}, {"compound": "CN1CCCN(C2CCN(C(=O)[C@H](NC(=O)Nc3ccc(Cl)cc3)c3ccccc3)CC2)CC1", "note": "[Example 154, (2R) 4-(4-methylhomopiperazin-1-yl)piperidin-1-yl-2-phenyl-2-(4-chlorophenylaminocarbonylamino)-acetamide]", "IC50": "100 to 500"}, {"compound": "O=C(Nc1ccc(Cl)cc1)NC(C(=O)N1CCC(N2CCOCC2=O)CC1)c1ccccc1Cl", "note": "(centres unmarked) [Example 145, 4-(3-morpholinon-4-yl)piperidin-1-yl-2-(2-chlorophenyl)-2-(4-chlorophenylaminocarbonylamino)-acetamide]", "IC50": "≤ 100"}, {"compound": "CN1CCC(N2CCCN(C(=O)[C@H](NC(=O)Nc3ccc(Cl)cc3)c3ccccc3)CC2)CC1", "note": "[Example 156, (2R) 4-(1-methylpiperidin-4-yl)homopiperazin-1-yl-2-phenyl-2-(4-chlorophenylaminocarbonylamino)-acetamide]", "IC50": "≥ 500"}, {"compound": "CN1CCN=C1c1ccc(NC(=O)C(Cc2c[nH]c3ccccc23)NC(=O)Nc2ccc(Cl)cc2)cc1", "note": "(centres unmarked) [Example 6, N-[4-(1-methyl-4,5-dihydro-1H-imidazol-2-yl)phenyl]-2-indol-3-ylmethyl-2-(4-chlorophenylaminocarbonylamino)-acetamide]", "IC50": "≤ 100"}, {"compound": "O=C(Nc1ccc(Cl)cc1)NC(C(=O)Nc1ccc(-c2cccc[n+]2[O-])cc1)c1ccccc1OC(F)(F)F", "note": "(centres unmarked) [Example 121, N-[4-(N-oxo-pyridin-2-yl)phenyl]-2-(2-trifluoromethoxyphenyl)-2-(4-chlorophenylaminocarbonylamino)-acetamide]", "IC50": "≤ 100"}, {"compound": "O=C(Nc1ccc(Cl)cc1)NC(C(=O)NCC1CCNCC1)c1ccccc1F", "note": "(centres unmarked) [Example 53, N-(piperidin-4-ylmethyl)-2-(2-fluorophenyl)-2-(4-chlorophenylaminocarbonylamino)-acetamide]", "IC50": "≥ 500"}, {"compound": "COc1ccccc1C(NC(=O)Nc1ccc(Cl)cc1)C(=O)N1CCN(C2CCN(C)CC2)CC1", "note": "(centres unmarked) [Example 109, N-[4-(1-methylpiperidin-4-yl)piperazin-1-yl]-2-(2-methoxyphenyl)-2-(4-chlorophenylaminocarbonylamino)-acetamide]", "IC50": "≤ 100"}, {"compound": "CN1CCCN(c2ccc(NC(=O)C(NC(=O)Nc3ccc(Cl)cc3)c3ccccc3Cl)cc2)CC1", "note": "(centres unmarked) [Example 102, N-[4-(4-methyl-homopiperazinyl)phenyl]-2-(2-chlorophenyl)-2-(4-chlorophenylaminocarbonylamino)-acetamide]", "IC50": "≤ 100"}, {"compound": "C=CCC(NC(=O)Nc1ccc(Cl)cc1)C(=O)Nc1ccc(C2=NCCN2C)cc1", "note": "(centres unmarked) [Example 132, N-[4-(1-methyl-4,5-dihydro-1H-imidazol-2-yl)phenyl]-2-allyl-2-(4-chlorophenylaminocarbonylamino)-acetamide]", "IC50": "≤ 100"}, {"compound": "Cc1ccccc1C(NC(=O)Nc1ccc(Cl)cc1)C(=O)Nc1ccc(-c2ccccc2CN(C)C)cc1", "note": "(centres unmarked) [Example 89, N-[4-(2-dimethylaminomethyl-phenyl)phenyl]-2-(2-methylphenyl)-2-(4-chlorophenylaminocarbonylamino)-acetamide]", "IC50": "≤ 100"}, {"compound": "CN1CCC(N2CCN(C(=O)C(NC(=O)Nc3ccc(Cl)cc3)c3ccccc3I)CC2)CC1", "note": "(centres unmarked) [Example 118]", "IC50": "≤ 100"}, {"compound": "Cc1ccccc1C(NC(=O)Nc1ccc(Cl)cc1)C(=O)Nc1ccc(C(=O)N2CCCC2)cc1", "note": "(centres unmarked) [Example 94, N-[4-(pyrrolidin-1-ylcarbonyl)phenyl]-2-(2-methylphenyl)-2-(4-chlorophenylaminocarbonylamino)-acetamide]", "IC50": "≤ 100"}, {"compound": "CN(C)C(=N)c1ccc(NC(=O)C(NC(=O)Nc2ccc(Cl)cc2)c2ccccc2)cc1", "note": "(centres unmarked) [Example 23]", "IC50": "≤ 100"}, {"compound": "CN1CCN=C1c1ccc(NC(=O)C(NC(=O)Nc2ccc(Cl)cc2)c2ccc(Br)cc2)cc1", "note": "(centres unmarked) [Example 119, N-[4-(1-methyl-4,5-dihydro-1H-imidazol-2-yl)phenyl]-2-(4-bromophenyl)-2-(4-chlorophenylaminocarbonylamino)-acetamide]", "IC50": "≤ 100"}, {"compound": "CC#CCC(NC(=O)Nc1ccc(Cl)cc1)C(=O)Nc1ccc(-c2cccc[n+]2[O-])cc1", "note": "(centres unmarked) [Example 131, N-[4-(N-oxo-pyridin-2-yl)phenyl]-2-(but-2-yn-1-yl)-2-(4-chlorophenylaminocarbonylamino)-acetamide]", "IC50": "≤ 100"}, {"compound": "O=C(Nc1ccc(Cl)cc1)NC(C(=O)Nc1ccc(-c2cccc[n+]2[O-])cc1)c1ccccc1SC(F)(F)F", "note": "(centres unmarked) [Example 123, N-[4-(N-oxo-pyridin-2-yl)phenyl]-2-(2-trifluoromethylthiophenyl)-2-(4-chlorophenylaminocarbonylamino)-acetamide]", "IC50": "≤ 100"}, {"compound": "CN1CCN=C1c1ccc(NC(=O)C(Cc2c[nH]cn2)NC(=O)Nc2ccc(Cl)cc2)cc1", "note": "(centres unmarked) [Example 7, N-[4-(1-methyl-4,5-dihydro-1H-imidazol-2-yl)phenyl]-2-imidazol-4-ylmethyl-2-(4-chlorophenylaminocarbonylamino)-acetamide]", "IC50": "≤ 100"}, {"compound": "CN1CCN=C1c1ccc(NC(=O)C(NC(=O)Nc2ccc(Cl)cc2)c2cccs2)cc1", "note": "(centres unmarked) [Example 12, N-[4-(1-methyl-4,5-dihydro-1H-imidazol-2-yl)phenyl]-2-(2-thienyl)-2-(4-chlorophenylaminocarbonylamino)-acetamide]", "IC50": "≤ 100"}, {"compound": "CC(C)N1CCC(NC(=O)C(NC(=O)Nc2ccc(Cl)cc2)c2ccccc2Br)CC1", "note": "(centres unmarked) [Example 82, N-(1-isopropylpiperidin-4-yl)-2-(2-bromophenyl)-2-(4-chlorophenylamino-carbonylamino)-acetamide]", "IC50": "≥ 500"}]}]}
